Measurements reported in article PMC9288506, “Compounds activating VCP D1 ATPase enhance both autophagic and proteasomal neurotoxic protein clearance” (Nature Communications, 2022).

Tests used:
Test in all cases: biochemical
Set-up in all cases: Thermo Fisher in vitro kinase panel, per cent inhibition of kinase activity at 10 uM
FES (FPS) = FES (FPS) (Homo sapiens, UniProt P07332)
Protocol: (§1) Kinase profiling of SMER28 and analogs SMER28 and analogs were tested at 10 µM in a panel of 123 kinases at ThermoFisher Scientific. Follow-up of selected kinases for SMER28 and analogs was also performed at ThermoFisher Scientific. Data are shown in Supplementary Data 2 and 3. […] An inhibition of PIK3C could induce autophagy, mediated by signaling through the AKT/mTOR axis[45].

MAPKAPK2 = MAPKAPK2 (Homo sapiens, UniProt P49137)
Protocol: as §1

CSF1R (FMS) = CSF1R (FMS) (Homo sapiens, UniProt P07333)
Protocol: as §1

ERBB4 (HER4) = ERBB4 (HER4) (Homo sapiens, UniProt Q15303)
Protocol: as §1

CDK7/cyclin H/MNAT1 = CDK7/cyclin H/MNAT1 (Homo sapiens, UniProt P50613)
Protocol: as §1

JAK1 = JAK1 (Homo sapiens, UniProt P23458)
Protocol: as §1

TYRO3 (RSE) = TYRO3 (RSE) (Homo sapiens, UniProt Q06418)
Protocol: as §1

JAK3 = JAK3 (Homo sapiens, UniProt P52333)
Protocol: as §1

[1] = target: PIK3CB/PIK3R1 (p110 beta/p85 alpha) (Homo sapiens, UniProt P42338)
Protocol: as §1

JAK2 = JAK2 (Homo sapiens, UniProt O60674)
Protocol: as §1

AURKC (Aurora C) = AURKC (Aurora C) (Homo sapiens, UniProt Q9UQB9)
Protocol: as §1

ERBB2 (HER2) = ERBB2 (HER2) (Homo sapiens, UniProt P04626)
Protocol: as §1

PAK7 (KIAA1264) = target: T1, PAK7 (KIAA1264) (Homo sapiens, UniProt Q9P286)
T1 construct: gene PAK5
Protocol: as §1

KDR (VEGFR2) = KDR (VEGFR2) (Homo sapiens, UniProt P35968)
Protocol: as §1

MAPK8 (JNK1) = MAPK8 (JNK1) (Homo sapiens, UniProt P45983)
Protocol: as §1

TNIK = TNIK (Homo sapiens, UniProt Q9UKE5)
Protocol: as §1

[2] = target: T2, MAPK14 (p38 alpha) Direct (Homo sapiens, UniProt Q16539)
T2 construct: Direct
Protocol: as §1

STK4 (MST1) = STK4 (MST1) (Homo sapiens, UniProt Q13043)
Protocol: as §1

MAPK1 (ERK2) = MAPK1 (ERK2) (Homo sapiens, UniProt P28482)
Protocol: as §1

AMPK A2/B1/G1 = target: T3, AMPK A2/B1/G1 (Homo sapiens, UniProt P54646)
T3 construct: gene PRKAA2
Protocol: as §1

STK17A (DRAK1) = STK17A (DRAK1) (Homo sapiens, UniProt Q9UEE5)
Protocol: as §1

PIK3CG (p110 gamma) = PIK3CG (p110 gamma) (Homo sapiens, UniProt P48736)
Protocol: as §1

MET (cMet) = MET (cMet) (Homo sapiens, UniProt P08581)
Protocol: as §1

PRKG1 = PRKG1 (Homo sapiens, UniProt Q13976)
Protocol: as §1

CSNK1G1 (CK1 gamma 1) = CSNK1G1 (CK1 gamma 1) (Homo sapiens, UniProt Q9HCP0)
Protocol: as §1

Chain of AURKC (Aurora C) (Q9UQB9 whole entry): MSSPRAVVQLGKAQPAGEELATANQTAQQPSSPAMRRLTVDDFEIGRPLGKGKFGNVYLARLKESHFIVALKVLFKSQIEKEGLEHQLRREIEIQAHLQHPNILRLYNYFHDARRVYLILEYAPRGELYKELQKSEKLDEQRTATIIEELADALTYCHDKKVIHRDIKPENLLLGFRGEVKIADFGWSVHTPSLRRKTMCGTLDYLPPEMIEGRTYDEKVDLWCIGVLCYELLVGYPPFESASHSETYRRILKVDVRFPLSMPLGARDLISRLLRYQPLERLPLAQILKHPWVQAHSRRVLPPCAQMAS
Chain of MET (cMet) (P08581 whole entry): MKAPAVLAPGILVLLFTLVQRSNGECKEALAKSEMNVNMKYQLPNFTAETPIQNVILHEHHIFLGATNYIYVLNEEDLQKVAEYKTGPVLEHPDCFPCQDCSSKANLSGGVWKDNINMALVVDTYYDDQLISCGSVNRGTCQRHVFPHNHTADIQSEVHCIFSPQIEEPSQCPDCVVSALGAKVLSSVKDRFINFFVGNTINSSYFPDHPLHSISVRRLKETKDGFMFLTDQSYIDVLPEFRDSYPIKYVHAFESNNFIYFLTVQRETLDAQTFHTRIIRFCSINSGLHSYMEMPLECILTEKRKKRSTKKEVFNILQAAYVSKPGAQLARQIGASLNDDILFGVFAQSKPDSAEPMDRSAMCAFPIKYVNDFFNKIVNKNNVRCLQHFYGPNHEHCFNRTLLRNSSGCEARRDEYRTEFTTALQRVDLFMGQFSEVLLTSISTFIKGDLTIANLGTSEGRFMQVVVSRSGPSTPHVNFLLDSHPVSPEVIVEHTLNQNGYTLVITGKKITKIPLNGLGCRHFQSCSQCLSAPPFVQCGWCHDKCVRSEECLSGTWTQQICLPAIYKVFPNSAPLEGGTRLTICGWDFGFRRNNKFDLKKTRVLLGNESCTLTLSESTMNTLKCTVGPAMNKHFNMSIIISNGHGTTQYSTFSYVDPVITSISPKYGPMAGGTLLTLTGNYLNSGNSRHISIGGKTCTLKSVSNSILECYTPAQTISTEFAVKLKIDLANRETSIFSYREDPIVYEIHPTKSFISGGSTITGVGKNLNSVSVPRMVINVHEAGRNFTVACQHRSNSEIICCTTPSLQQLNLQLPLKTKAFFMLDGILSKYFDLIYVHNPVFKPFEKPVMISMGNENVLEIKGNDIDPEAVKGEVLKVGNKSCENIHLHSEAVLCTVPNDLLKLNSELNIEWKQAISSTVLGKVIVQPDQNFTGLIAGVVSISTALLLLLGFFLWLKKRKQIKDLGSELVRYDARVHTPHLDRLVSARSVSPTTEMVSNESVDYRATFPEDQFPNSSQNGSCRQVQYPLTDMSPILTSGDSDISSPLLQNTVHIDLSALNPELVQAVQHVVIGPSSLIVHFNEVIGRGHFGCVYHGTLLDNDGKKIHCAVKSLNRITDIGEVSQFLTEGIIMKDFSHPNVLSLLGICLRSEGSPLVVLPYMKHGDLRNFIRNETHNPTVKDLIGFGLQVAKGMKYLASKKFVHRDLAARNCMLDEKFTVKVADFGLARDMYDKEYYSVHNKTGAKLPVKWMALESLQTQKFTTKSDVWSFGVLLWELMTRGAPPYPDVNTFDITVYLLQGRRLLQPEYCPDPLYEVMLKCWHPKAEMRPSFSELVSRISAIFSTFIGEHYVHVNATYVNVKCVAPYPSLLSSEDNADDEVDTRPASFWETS
Chain of STK4 (MST1) (Q13043 whole entry): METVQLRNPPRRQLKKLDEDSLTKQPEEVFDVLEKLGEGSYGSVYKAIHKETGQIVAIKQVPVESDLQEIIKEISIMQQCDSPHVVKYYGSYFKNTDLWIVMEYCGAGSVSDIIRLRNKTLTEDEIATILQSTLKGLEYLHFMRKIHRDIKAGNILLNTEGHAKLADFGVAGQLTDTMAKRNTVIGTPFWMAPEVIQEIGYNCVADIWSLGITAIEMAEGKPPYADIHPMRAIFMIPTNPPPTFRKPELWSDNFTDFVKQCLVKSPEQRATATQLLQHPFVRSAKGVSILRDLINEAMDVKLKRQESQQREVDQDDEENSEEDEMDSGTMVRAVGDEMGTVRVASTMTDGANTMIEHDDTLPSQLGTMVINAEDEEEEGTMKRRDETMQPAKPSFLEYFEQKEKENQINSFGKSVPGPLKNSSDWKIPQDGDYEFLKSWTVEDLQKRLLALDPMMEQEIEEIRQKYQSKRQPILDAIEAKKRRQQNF
Chain of ERBB4 (HER4) (Q15303 whole entry): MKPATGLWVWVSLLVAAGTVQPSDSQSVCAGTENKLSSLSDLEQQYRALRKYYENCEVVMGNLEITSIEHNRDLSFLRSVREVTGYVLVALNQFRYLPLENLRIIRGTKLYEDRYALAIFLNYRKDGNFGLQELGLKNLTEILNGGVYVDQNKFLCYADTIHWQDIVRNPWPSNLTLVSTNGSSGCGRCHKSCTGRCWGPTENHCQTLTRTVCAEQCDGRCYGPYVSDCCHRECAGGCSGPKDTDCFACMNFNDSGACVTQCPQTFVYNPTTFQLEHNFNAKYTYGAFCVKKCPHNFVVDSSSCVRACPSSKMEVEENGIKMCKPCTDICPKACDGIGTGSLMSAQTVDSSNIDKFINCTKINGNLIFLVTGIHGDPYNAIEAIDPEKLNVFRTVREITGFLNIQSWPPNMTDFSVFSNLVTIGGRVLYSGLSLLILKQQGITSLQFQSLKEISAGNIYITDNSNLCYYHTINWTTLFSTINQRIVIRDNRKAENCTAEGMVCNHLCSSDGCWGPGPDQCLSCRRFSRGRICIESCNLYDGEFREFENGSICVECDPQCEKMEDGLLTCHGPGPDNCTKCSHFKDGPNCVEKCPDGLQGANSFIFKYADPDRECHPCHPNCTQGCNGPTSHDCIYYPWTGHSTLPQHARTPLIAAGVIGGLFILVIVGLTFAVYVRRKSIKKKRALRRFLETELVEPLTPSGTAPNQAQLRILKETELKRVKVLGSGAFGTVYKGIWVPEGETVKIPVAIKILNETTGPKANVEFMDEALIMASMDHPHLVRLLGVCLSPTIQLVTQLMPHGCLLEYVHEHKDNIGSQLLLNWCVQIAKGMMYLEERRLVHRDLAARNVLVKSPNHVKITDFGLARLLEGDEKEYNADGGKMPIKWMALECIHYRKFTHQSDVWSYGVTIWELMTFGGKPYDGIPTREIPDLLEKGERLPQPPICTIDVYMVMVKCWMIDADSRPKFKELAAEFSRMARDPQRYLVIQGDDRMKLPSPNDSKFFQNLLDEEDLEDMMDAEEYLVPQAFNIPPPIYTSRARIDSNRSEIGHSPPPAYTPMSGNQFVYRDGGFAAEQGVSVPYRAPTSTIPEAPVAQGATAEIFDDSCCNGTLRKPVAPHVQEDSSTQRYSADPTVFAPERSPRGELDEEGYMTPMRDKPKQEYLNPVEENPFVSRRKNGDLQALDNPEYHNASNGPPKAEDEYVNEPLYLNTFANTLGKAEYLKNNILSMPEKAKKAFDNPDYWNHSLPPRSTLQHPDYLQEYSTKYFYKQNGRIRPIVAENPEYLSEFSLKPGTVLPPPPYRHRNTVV
Chain of KDR (VEGFR2) (P35968 whole entry): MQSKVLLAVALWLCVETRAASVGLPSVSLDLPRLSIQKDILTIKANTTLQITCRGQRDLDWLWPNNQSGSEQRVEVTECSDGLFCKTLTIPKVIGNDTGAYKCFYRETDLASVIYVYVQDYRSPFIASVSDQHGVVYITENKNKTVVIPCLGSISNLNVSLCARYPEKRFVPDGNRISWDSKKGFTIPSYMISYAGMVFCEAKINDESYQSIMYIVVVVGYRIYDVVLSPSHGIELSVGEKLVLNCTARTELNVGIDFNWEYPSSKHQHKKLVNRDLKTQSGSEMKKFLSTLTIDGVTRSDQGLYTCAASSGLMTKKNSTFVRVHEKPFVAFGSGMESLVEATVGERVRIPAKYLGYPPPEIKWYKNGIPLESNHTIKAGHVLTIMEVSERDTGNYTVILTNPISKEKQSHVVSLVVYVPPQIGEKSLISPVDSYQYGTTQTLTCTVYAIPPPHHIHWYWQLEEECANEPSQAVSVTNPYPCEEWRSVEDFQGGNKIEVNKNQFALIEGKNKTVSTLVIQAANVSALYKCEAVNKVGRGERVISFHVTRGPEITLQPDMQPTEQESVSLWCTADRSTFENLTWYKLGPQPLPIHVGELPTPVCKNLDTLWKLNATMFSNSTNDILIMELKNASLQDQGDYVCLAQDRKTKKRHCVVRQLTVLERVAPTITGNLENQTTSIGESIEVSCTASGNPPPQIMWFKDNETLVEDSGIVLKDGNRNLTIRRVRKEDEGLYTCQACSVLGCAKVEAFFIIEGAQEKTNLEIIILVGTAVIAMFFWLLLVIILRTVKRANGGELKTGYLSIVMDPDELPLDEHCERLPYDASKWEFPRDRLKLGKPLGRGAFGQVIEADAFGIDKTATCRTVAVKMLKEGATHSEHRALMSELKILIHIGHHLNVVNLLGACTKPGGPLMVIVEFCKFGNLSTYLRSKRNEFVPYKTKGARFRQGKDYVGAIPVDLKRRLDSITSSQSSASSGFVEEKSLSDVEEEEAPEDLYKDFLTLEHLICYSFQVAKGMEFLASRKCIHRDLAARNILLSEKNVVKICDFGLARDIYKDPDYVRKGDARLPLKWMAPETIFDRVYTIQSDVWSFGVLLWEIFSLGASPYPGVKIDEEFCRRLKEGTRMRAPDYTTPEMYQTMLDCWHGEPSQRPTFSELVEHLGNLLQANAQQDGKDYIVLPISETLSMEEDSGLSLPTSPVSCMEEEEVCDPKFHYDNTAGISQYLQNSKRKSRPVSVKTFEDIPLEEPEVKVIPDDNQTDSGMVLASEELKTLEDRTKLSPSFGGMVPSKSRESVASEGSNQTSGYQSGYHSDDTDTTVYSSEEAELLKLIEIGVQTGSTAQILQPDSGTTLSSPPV

Work on `C=CCNc1ncnc2ccc(Br)cc12` [SMER28] yielded an inhibition at 10 µM (FES (FPS)) of 8%, an inhibition at 10 µM (MAPKAPK2) of 0% and an inhibition at 10 µM (CSF1R (FMS)) of 39%. For the same molecule, the inhibition at 10 µM (ERBB4 (HER4)) was 10%, the inhibition at 10 µM (CDK7/cyclin H/MNAT1) was 34% and the inhibition at 10 µM (JAK1) was -13%. It also gave an inhibition at 10 µM (TYRO3 (RSE)) of 11%, an inhibition at 10 µM (JAK3) of 14% and an inhibition at 10 µM [1] of 23%. For the same molecule, the inhibition at 10 µM (JAK2) was 3%, the inhibition at 10 µM (AURKC (Aurora C)) was -6% and the inhibition at 10 µM (ERBB2 (HER2)) was -1%. The inhibition at 10 µM (PAK7 (KIAA1264)) was 7%, the inhibition at 10 µM (KDR (VEGFR2)) was 13% and the inhibition at 10 µM (MAPK8 (JNK1)) was -2%. The inhibition at 10 µM (TNIK) was 38%, the inhibition at 10 µM [2] was 7% and the inhibition at 10 µM (STK4 (MST1)) was 11%. It also gave an inhibition at 10 µM (MAPK1 (ERK2)) of -2%, an inhibition at 10 µM (AMPK A2/B1/G1) of 12% and an inhibition at 10 µM (STK17A (DRAK1)) of 34%. The inhibition at 10 µM (PIK3CG (p110 gamma)) was 65%, the inhibition at 10 µM (MET (cMet)) was 8% and the inhibition at 10 µM (PRKG1) was 6%. The inhibition at 10 µM (CSNK1G1 (CK1 gamma 1)) was 31%.
